Source: patent US8877758B2, “Combinations of medicaments, containing PDE4-inhibitors and EP4-receptor-antagonists” (Boehringer Ingelheim International GmbH, priority 2010, dated 2014)
“Also recorded” adds a separate entry of the source.

Legend:
male Wistar rats [1] = assay: Experiment 4: four-day oral treatment of rats, roflumilast-mediated effects with or without AH-6809; assay type: in vivo, rat
Description: group 2 (“AH-6809 group”): Six male Wistar rats were given a daily dosage of 10 mg/kg AH-6809 (preferential EP2 antagonist) at 1300 hours.

male Wistar rats [2] = assay: Experiment 2: four-day oral treatment of rats, roflumilast-mediated effects with or without SC-560 or Lumiracoxib; assay type: in vivo, rat
Text: For pharmacokinetic analysis (determining plasma levels of the substances) one rat from each group was used on day 4; these rats were no longer available for the investigation of other parameters.

male Wistar rats [3] = assay: Experiment 3: four-day oral treatment of rats, roflumilast-mediated effects with or without MF-498; assay type: in vivo, rat
male Wistar rats [4] = assay: as above; assay type: in vivo, rat; settings: 20 mg/kg MF-498 p.o. at 1300 hours, four days, no roflumilast
Description: group 2 (“MF-498 group”): Six male Wistar rats were given a daily dosage of 20 mg/kg MF-498 (EP4 antagonist) in each case at 1300 hours.

male Wistar rats [5] = assay: Experiment 1: four-day oral treatment of rats, roflumilast-mediated effects with or without diclofenac
Description: Six male Wistar rats in each group were treated for four days with the following substances (all substances are given p.o.=orally):
Group 1 (“control group”): Six male Wistar rats were given a daily dose of 0.5% Natrosol (placebo) at the times 0800, 1300 and 1700 hours.
Group 2 (“diclofenac group”): Six male Wistar rats were given a daily dose of 1 mg/kg of diclofenac (NSAID) at the times 0800 and 1700 hours and 0.5% Natrosol (placebo) at 1300 hours.
Group 3 (“roflumilast group”): Six male Wistar rats were given a daily dose of 0.5% Natrosol (placebo) at 0800 and 1700 hours and 10 mg/kg roflumilast (PDE4 inhibitor) at 1300 hours.
Group 4 (“roflumilast+diclofenac group”): Six male Wistar rats were given a daily dose of 1 mg/kg diclofenac (NSAID) at the times 0800 and 1700 hours and 10 mg/kg roflumilast (PDE4 inhibitor) at 1300 hours.
For pharmacokinetic analysis (determining the plasma levels of the substances) on day 4 one rat from each group was used; these rats were no longer available for other parameters under investigation.
During the experiment the body weights of the animals were determined and the differences in the body weights of the rats from the different groups towards the end of the experiment were shown as a percentage change from the time of the first administration (=day 1, 0800 hours (=time t0)). The average±standard deviation of the body weights at time t0 was 355±17 g.
At the end of the experiment (day 5, 95 hours after t0 (t0=the time of the first administration on day 1, 0800)) the proportion of neutrophils (in % of white blood cells, FIG. 2) were determined from the blood of 4 or 5 of the rats from the individual groups. In addition, the weights of the animals' spleens were measured and the mesenteries were dissected for histopathological investigation for vasculitis (multifocal perivascular mononuclear/polymorphonuclear infiltration).

[6] = AH-6809 and 10 mg/kg Roflumilast p.o. at 1300 hours, four days
[7] = 2 mg/kg p.o. at 0800 and 1700 hours + 10 mg/kg Roflumilast at 1300 hours, four days
[8] = 20 mg/kg MF-498 and 10 mg/kg Roflumilast p.o. at 1300 hours, four days
[9] = 10 mg/kg Roflumilast p.o. at 1300 hours for four days, read-out day 5, 95 hours after t0
[10] = 1 mg/kg diclofenac p.o. at 0800 and 1700 hours + 10 mg/kg roflumilast at 1300 hours, four days

CC(C)Oc1ccc2c(=O)c3cc(C(=O)O)ccc3oc2c1 [AH6809, 6-isopropoxy-9-oxoxanthene-2-carboxylic acid]
parameters measured after administration on its own (body weight, spleen weight, neutrophils, mesenteric vasculitis) (male Wistar rats [1]; 10 mg/kg AH-6809 p.o. at 1300 hours, four days, no roflumilast): very similar to the control group
influence of co-administration on roflumilast-mediated loss of body weight (FIG. 13) (male Wistar rats [1]; [6]): no indications that the EP2 preferential receptor antagonist AH-809 had any influence
influence of co-administration on roflumilast-mediated loss of spleen weight (FIG. 14) (male Wistar rats [1]; [6]): no indications that the EP2 preferential receptor antagonist AH-809 had any influence
influence of co-administration on roflumilast-mediated mesenteric vasculitis (monocyte/polymorphonuclear perivascular infiltration, FIG. 16) (male Wistar rats [1]; [6]): no indications that the EP2 preferential receptor antagonist AH-809 had any influence
influence of co-administration on roflumilast-mediated neutrophilia (FIG. 15) (male Wistar rats [1]; [6]): no indications that the EP2 preferential receptor antagonist AH-809 had any influence

Cc1ccc(Nc2c(F)cccc2Cl)c(CC(=O)O)c1 [Lumiracoxib]
effect of co-administration on roflumilast-mediated loss of body weight (FIG. 5) (male Wistar rats [2]; [7]): substantially reduced or prevented
effect of co-administration on roflumilast-mediated loss of spleen weight (FIG. 6) (male Wistar rats [2]; [7]): substantially reduced or prevented
effect of co-administration on roflumilast-mediated mesenteric vasculitis (monocyte/polymorphonuclear perivascular infiltration, FIG. 8) (male Wistar rats [2]; [7]): substantially reduced or prevented
effect of co-administration on roflumilast-mediated neutrophilia (FIG. 7) (male Wistar rats [2]; [7]): substantially reduced or prevented
parameters measured after administration on its own (body weight, spleen weight, neutrophils, mesenteric vasculitis) (male Wistar rats [2]; 2 mg/kg p.o. at 0800 and 1700 hours, four days, no roflumilast): very similar to the control groups

CCOc1c2c(c(OCC)c3ncccc13)CN(c1ccc(CS(=O)(=O)NC(=O)Cc3ccccc3OC)cc1C)C2=O [MF-498, N-{[4-(5,9-diethoxy-6-oxo-6,8-dihydro-7H-pyrrolo(3,4-g)quinolin-7-yl)-3-methylbenzyl)sulphonyl}-2-(2-methoxyphenyl)acetamide]
effect of co-administration on roflumilast-mediated loss of body weight (FIG. 9) (male Wistar rats [3]; [8]): substantially reduced
effect of co-administration on roflumilast-mediated loss of spleen weight (FIG. 10) (male Wistar rats [3]; [8]): substantially reduced
effect of co-administration on roflumilast-mediated mesenteric vasculitis (monocyte/polymorphonuclear perivascular infiltration, FIG. 12) (male Wistar rats [3]; [8]): substantially reduced
effect of co-administration on roflumilast-mediated neutrophilia (FIG. 11) (male Wistar rats [3]; [8]): substantially reduced
differences in the weight of the spleen between the Roflumilast group and the Roflumilast+MF-498 group (statistics) (male Wistar rats [3]; 20 mg/kg MF-498 and 10 mg/kg Roflumilast p.o., one animal of the Roflumilast group had an unusually small loss of spleen weight): do not achieve statistical significance
parameters measured after administration on its own (body weight, spleen weight, neutrophils, mesenteric vasculitis) (male Wistar rats [4]): very similar to the control group

O=C(Nc1c(Cl)cncc1Cl)c1ccc(OC(F)F)c(OCC2CC2)c1 [Roflumilast]
PDE4 inhibitor-mediated side effects observed in the Roflumilast group (male Wistar rats [3]; [9]): loss of body weight; also recorded: loss of spleen weight; also recorded: neutrophilia; also recorded: mesenteric vasculitis
PDE4 inhibitor-mediated side effects observed in the Roflumilast group (male Wistar rats [1]; [9]): loss of body weight; also recorded: loss of spleen weight; also recorded: neutrophilia; also recorded: mesenteric vasculitis
death of animals in the roflumilast group (male Wistar rats [5]; 10 mg/kg roflumilast p.o. daily, six rats per group): died between day 4 and day 5
PDE4 inhibitor-mediated side effects observed in the Roflumilast group (male Wistar rats [2]; [9]): loss of body weight; also recorded: loss of spleen weight; also recorded: neutrophilia; also recorded: mesenteric vasculitis

O=C(O)Cc1ccccc1Nc1c(Cl)cccc1Cl [diclofenac]
effect of co-administration on roflumilast-mediated loss of body weight (FIG. 1) (male Wistar rats [5]; [10]): substantially reduced or prevented
effect of co-administration on roflumilast-mediated loss of spleen weight (FIG. 2) (male Wistar rats [5]; [10]): substantially reduced or prevented
effect of co-administration on roflumilast-mediated mesenteric vasculitis (monocyte/polymorphonuclear infiltration into the mesentery, FIG. 4) (male Wistar rats [5]; [10]): substantially reduced or prevented
effect of co-administration on roflumilast-mediated neutrophilia (FIG. 3) (male Wistar rats [5]; [10]): substantially reduced or prevented
parameters measured after administration on its own (body weight, spleen weight, neutrophils, mesenteric vasculitis) (male Wistar rats [5]; 1 mg/kg diclofenac p.o. at 0800 and 1700 hours, four days, no roflumilast): very similar to the control groups
